How the values were obtained:
[1] = tested on: blood coagulation; assay: Sense-oligonucleotide antidote: aPTT (Example 23); format: in vivo, BALB/c mice; conditions: ISIS 404071 40 mg/kg s.c. twice a week for three weeks, ISIS 418026 90 mg/kg where given
Method: (§1) The effect of the specific sense oligonucleotide to ISIS 404071 as an antidote was tested in BALB/c mice. In a first cohort, ISIS 404071 was administered subcutaneously to BALB/c mice twice a week for three weeks at a dose of 40 mg/kg. In a second cohort, ISIS 404057 was administered subcutaneously to BALB/c mice twice a week for three weeks at a dose of 40 mg/kg. The ISIS 404071 specific antidote, ISIS 418026 ([…]; complementary to ISIS 404071), incorporated herein as SEQ ID NO: 13, was administered to both cohorts subcutaneously in a single injection of 90 mg/kg 48 hours after the final treatment of ISIS 404071 or 404057. In a third cohort, ISIS 404071 was administered subcutaneously to BALB/c mice twice a week for three weeks at a dose of 40 mg/kg. Following the last treatment of ISIS 404071, mice were injected subcutaneously injected with PBS. In a fourth cohort, ISIS 404057 was administered subcutaneously to BALB/c mice twice a week for three weeks at a dose of 40 mg/kg. Following the last treatment of ISIS 404057, mice were injected subcutaneously injected with PBS. Following antidote administration, a set of 4 mice from each cohort were sacrificed at 12 hours, 1 day, 2 days, 3 days, 7 days, and 14 days. Whole liver was collected for RNA analysis and PPP was collected for aPTT analysis.

[2] = tested on: platelet factor-4 (PF-4); assay: Thrombus formation by PF-4 real-time PCR, FeCl3 induced venous thrombosis model vs Apixaban (Example 14); format: in vivo, BALB/c mice; conditions: for PF-4 in vena cava, percentage as compared to PBS controls (thrombus formation): + FeCl3
Method: ISIS 404071 and Apixaban were evaluated in the FeCl3 induced VT mouse model. […] Two days after receiving the last dose of ISIS 404071, mice were anesthetized with 150 mg/kg ketamine mixed with 10 mg/kg xylazine administered by intraperitoneal injection. […] Twenty minutes after receiving Apixaban, mice were anesthetized with 150 mg/kg ketamine mixed with 10 mg/kg xylazine administered by intraperitoneal injection. […] Two days after the last dose of PBS, mice in both groups were anesthetized with 150 mg/kg ketamine mixed with 10 mg/kg xylazine administered by intraperitoneal injection. Thrombus formation was induced with FeCl3 in all of the mice except the first control group.
In mice undergoing FeCl3 treatment, thrombus formation was induced by applying a piece of filter paper (2×4 mm) pre-saturated with 10% FeCl3 solution directly on the vena cava. After 3 minutes of exposure, the filter paper was removed. Thirty minutes after the filter paper application, a fixed length of the vein containing the thrombus was dissected out for platelet analysis. Liver was collected for RNA analysis.
Real-time PCR quantification of platelet factor-4 (PF-4) was used to quantify platelets in the vena cava as a measure of thrombus formation. […] Results are presented as a percentage of PF-4 in ISIS 404071 or Apixaban treated mice, as compared to the two PBS-treated control groups.

[3] = tested on: mouse Factor 11 mRNA; assay: Sense-oligonucleotide antidote: Factor 11 mRNA in liver (Example 23); format: in vivo, BALB/c mice; conditions: for Percent inhibition of mouse Factor 11 mRNA compared to PBS control: antisense 40 mg/kg s.c. twice a week for three weeks, ISIS 418026 90 mg/kg single injection where given
Method: as §1
RNA was extracted from liver tissue for real-time PCR analysis of Factor 11. Results are presented as percent inhibition of Factor 11, relative to PBS control.

[4] = Tail bleeding assay vs warfarin (Example 12); conditions: mouse, in vivo; for Blood (tail bleeding, collected over 40 minutes): sc
Method: A separate control group of BALB/c mice was treated with PBS, administered subcutaneously twice a week for 3 weeks.
Mice were anesthetized in the chamber with isoflurane and a small piece of tail (approximately 4 mm from the tip) was cut with sterile scissors. The tail cut was immediately placed in a 15 mL Falcon tube filled with approximately 10 mL of 0.9% NaCl buffer solution warmed to 37° C. The blood was collected over the course of 40 minutes. The saline filled tubes were weighed both before and after bleeding.

[5] = tested on: blood coagulation; assay: PT and aPTT assay in platelet poor plasma (Example 10); format: in vivo; conditions: BALB/c mice
Method: BALB/c mice were injected with 5 mg/kg, 10 mg/kg, 25 mg/kg, or 50 mg/kg of ISIS 404057 or ISIS 404071 twice a week for 3 weeks. A control group of mice was injected with phosphate buffered saline (PBS) twice a week for 3 weeks. Mice were sacrificed 5 days after receiving the last dose. Whole liver was harvested for RNA analysis and plasma was collected for clotting analysis (PT and aPTT) and protein analysis.
Prothrombin Time (PT) and Activated Partial Thromboplastin Time (aPTT) were measured using platelet poor plasma (PPP) from mice treated with ISIS 404057 and ISIS 404071. PT and aPTT values provided in Table 18 are reported as International Normalized Ratio (INR) values. INR values for PT and aPTT were determined by dividing the PT or aPTT value for each experimental group (i.e. 5 mg/kg, 10 mg/kg, 25 mg/kg, and 50 mg/kg treatment with ISIS 404057 or ISIS 404071) by the PT or aPTT for the PBS treated group. This ratio was then raised to the power of the International Sensitivity Index (ISI) of the tissue factor used.

[6] = 5 mg/kg twice a week for 3 weeks
[7] = 10 mg/kg twice a week for 3 weeks
[8] = 25 mg/kg twice a week for 3 weeks
[9] = 50 mg/kg twice a week for 3 weeks
[10] = 5-50 mg/kg twice a week for 3 weeks

Which “aPTT INR” value ([1]; 12 hours after antidote/PBS) does the source give for “ISIS 404071: antisense oligonucleotide targeted to murine Factor 11 mRNA, TGGTAATCCACTTTCAGAGG, target start site 869 (chemistry not given here)” here?
The value was 1.51 INR.

What about the “aPTT INR” value ([1]; 1 day after antidote/PBS) of the same substance?
The value was 1.30 INR.

What about the “aPTT INR” value ([1]; 2 day after antidote/PBS) of the same substance?
Its value is 1.35 INR.

And the “aPTT INR” value ([1]; 3 day after antidote/PBS)?
Its value is 1.27 INR.

What about the “aPTT INR” value ([1]; 7 day after antidote/PBS) of the same substance?
The value was 1.18 INR.

What about the “aPTT INR” value ([1]; 14 day after antidote/PBS) of the same substance?
Its value is 1.05 INR.

And the “PF-4 in vena cava as measure of thrombus formation” value ([2]; FeCl3 induced VT model, vs PBS control)?
Its value is “resulted in reduction of PF-4”.

What about the “PF-4 in vena cava, percentage as compared to PBS controls (thrombus formation)” value (“PF-4 in vena cava, percentage” below) ([2]; ISIS 404071 1.25 mg/kg subcutaneously twice a week for 3 weeks) of the same substance?
Its value is 42%.

And the “PF-4 in vena cava, percentage” value ([2]; ISIS 404071 5 mg/kg subcutaneously twice a week for 3 weeks)?
Its value is 60%.

What about the “PF-4 in vena cava, percentage” value ([2]; ISIS 404071 10 mg/kg subcutaneously twice a week for 3 weeks) of the same substance?
The value was 28%.

And the “PF-4 in vena cava, percentage” value ([2]; ISIS 404071 25 mg/kg subcutaneously twice a week for 3 weeks)?
The value was 14%.

And the “PF-4 in vena cava, percentage” value ([2]; ISIS 404071 50 mg/kg subcutaneously twice a week for 3 weeks)?
The value was 4%.

What about the “Percent inhibition of mouse Factor 11 mRNA compared to PBS control” value (shortened to “Percent inhibition”) ([3]; 12 hours after antidote/PBS) of the same substance?
Its value is 93%.

What about the “Percent inhibition” value ([3]; 1 day after antidote/PBS) of the same substance?
Its value is 90%.

And the “Percent inhibition” value ([3]; 2 days after antidote/PBS)?
Its value is 89%.

And the “Percent inhibition” value ([3]; 3 days after antidote/PBS)?
The value was 88%.

What about the “Percent inhibition” value ([3]; 7 days after antidote/PBS) of the same substance?
Its value is 81%.

What about the “Percent inhibition” value ([3]; 14 days after antidote/PBS) of the same substance?
Its value is 67%.

What about the “inhibition of Factor 11 mRNA over the 14 day observation period” value ([3]; BALB/c mice, ISIS 404071 40 mg/kg, with or without ISIS 418026 90 mg/kg) of the same substance?
The value was “progressive decrease in inhibition”.

What about the “bleeding in tail bleeding assay” value [4] of the same substance?
The value was “did not affect bleeding”.

And the “Blood (tail bleeding, collected over 40 minutes)” value ([4]; 1.25 mg/kg)?
Its value is 0.00 g.

And the “Blood (tail bleeding, collected over 40 minutes)” value ([4]; 5 mg/kg)?
The value was 0.03 g.

And the “Blood (tail bleeding, collected over 40 minutes)” value ([4]; 10 mg/kg)?
Its value is 0.00 g.

And the “Blood (tail bleeding, collected over 40 minutes)” value ([4]; 20 mg/kg)?
Its value is 0.06 g.

And the “Blood (tail bleeding, collected over 40 minutes)” value ([4]; 40 mg/kg)?
Its value is 0.03 g.

What about the “PT INR” value [5, 6] of the same substance?
The value was 1.06.

What about the “aPTT INR” value [5, 6] of the same substance?
The value was 1.09.

And the “PT INR” value [5, 7]?
Its value is 1.08.

What about the “aPTT INR” value [5, 7] of the same substance?
Its value is 1.13.

What about the “PT INR” value [5, 8] of the same substance?
Its value is 1.06.

What about the “aPTT INR” value [5, 8] of the same substance?
Its value is 1.35.

What about the “PT INR” value [5, 9] of the same substance?
The value was 1.02.

And the “aPTT INR” value [5, 9]?
Its value is 2.08.

What about the “PT” value [5, 10] of the same substance?
Its value is “not significantly prolonged”.

And the “aPTT” value [5, 10]?
The value was “prolonged in a dose-dependent manner”.
